The record followed here is ChEMBL document CHEMBL4477264, “Amino acid amides of piperic acid (PA) and 4-ethylpiperic acid (EPA) as NorA efflux pump inhibitors of Staphylococcus aureus” (2016).

Activity calls are given as the source filed them. The calls are words filed in the database; no cut-off is given here.

Assay [1] has as its system Staphylococcus aureus. The assay is described as follows: Antibacterial activity against Staphylococcus aureus 1199B overexpressing NorA efflux pump measured after 24 hrs by broth checkerboard method. It counts as functional.
Assay [2] addresses T1, Quinolone resistance protein NorA (Staphylococcus aureus) (UniProt P0A0J7).
T1 sequence (whole entry): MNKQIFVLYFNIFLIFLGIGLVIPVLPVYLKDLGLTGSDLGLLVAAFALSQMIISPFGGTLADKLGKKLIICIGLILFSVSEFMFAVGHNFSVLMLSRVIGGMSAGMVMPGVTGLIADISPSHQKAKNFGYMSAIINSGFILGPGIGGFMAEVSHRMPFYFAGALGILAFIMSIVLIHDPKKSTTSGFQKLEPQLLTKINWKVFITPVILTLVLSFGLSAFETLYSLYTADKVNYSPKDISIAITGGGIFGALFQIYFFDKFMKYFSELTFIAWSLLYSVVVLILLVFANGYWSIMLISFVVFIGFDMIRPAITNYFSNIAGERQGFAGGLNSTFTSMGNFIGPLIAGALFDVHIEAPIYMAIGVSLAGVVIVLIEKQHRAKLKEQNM
The assay is described as follows: Inhibition of NorA efflux pump overexpressed in Staphylococcus aureus 1199B assessed as fold reduction in ciprofloxacin MIC at 12.5 ug/ml measured after 24 hrs by broth checkerboard method.

Assay [3] has as its target T1, Quinolone resistance protein NorA (Staphylococcus aureus). The assay is described as follows: Inhibition of NorA efflux pump overexpressed in Staphylococcus aureus 1199B assessed as concentration required for four-fold reduction in ciprofloxacin MIC measured after 24 hrs by broth checkerboard method relative to control.
Assay [4] relates to Staphylococcus aureus. Nature of the assay: Antibacterial activity against wild-type Staphylococcus aureus 1199 expressing NorA efflux pump measured at every 3 mins interval for 30 mins by fluorescence analysis. It counts as functional.
Assay [5] addresses T1, Quinolone resistance protein NorA (Staphylococcus aureus). Nature of the assay: Inhibition of NorA efflux pump in Staphylococcus aureus 1199 assessed as concentration required for four-fold reduction in ethidium bromide MIC measured at every 3 mins interval for 30 mins by fluorescence analysis.
The target is the same in assay [6]. Nature of the assay: Inhibition of NorA efflux pump overexpressed in Staphylococcus aureus 1199B assessed as reduction in EtBr efflux measured over 30 mins by fluorescence analysis.
Assay [7] has the same target. Nature of the assay: Inhibition of NorA efflux pump overexpressed in Staphylococcus aureus 1199B assessed as concentration required for four-fold reduction in ethidium bromide MIC measured at every 3 mins interval for 30 mins by fluorescence analysis.
For assay [8], the system named is Staphylococcus aureus. Nature of the assay: Antibacterial activity against Staphylococcus aureus 1199B overexpressing NorA efflux pump measured at every 3 mins interval for 30 mins by fluorescence analysis. It counts as functional.
In assay [9] the target is T1, Quinolone resistance protein NorA (Staphylococcus aureus). Nature of the assay: Inhibition of NorA efflux pump overexpressed in Staphylococcus aureus 1199B assessed as increase in EtBr accumulation at 50 ug/ml measured after 30 mins by fluorescence analysis.
The target is the same in assay [10]. Nature of the assay: Inhibition of NorA efflux pump in Staphylococcus aureus 1199 assessed as fold reduction in ethidium bromide MIC at […] measured at every 3 mins interval for 30 mins by fluorescence analysis. The note with it: 12.5 ug/ml.
Assay [11] has the same target. The assay is described as follows: Inhibition of NorA efflux pump overexpressed in Staphylococcus aureus 1199B assessed as fold reduction in ethidium bromide MIC at 12.5 ug/ml measured at every 3 mins interval for 30 mins by fluorescence analysis.
Assay [12] has the same target. Nature of the assay: Potency index, ratio of SK-20 MEC to compound MEC for Staphylococcus aureus 1199B overexpressing NorA efflux pump assessed as concentration required for four-fold reduction in ciprofloxacin MIC.

In general, MIC refers to the least concentration at which growth counts as inhibited. For `O=C(O)/C=C/C=C/c1ccc2c(c1)OCO2` [PIPERIC ACID], the minimum inhibitory concentration (MIC) in the assay on Staphylococcus aureus [1] was above 50 µg/mL. For the same molecule, the fold change (FC) in assay [2] came to 0. In assay [3], the MEC was above 50 µg/mL.

For `CCC(/C=C/C(=O)NC1(CC(=O)OC)CCCCC1)=C\c1ccc2c(c1)OCO2`, the MIC with Staphylococcus aureus [1] is above 50 µg/mL. Further, the fold change (FC) in assay [2] was determined as 2. The MEC in assay [3] is 50 µg/mL.

`CCCCC(=O)NC1(CC(=O)NNc2ccccc2)CCN(C(=O)/C=C/C(=C/c2ccc3c(c2)OCO3)CC)CC1`: the minimum inhibitory concentration (MIC) in the assay on Staphylococcus aureus [4], with Staphylococcus aureus [1] and against Staphylococcus aureus [8] was above 50 µg/mL throughout. The MEC in assay [5] came to 12.5 µg/mL; in assay [7], 3.12 µg/mL; in assay [3], 6.25 µg/mL. Further, in [6], the inhibition result was “Dose-dependent effect”. Also, the fold change (FC) in assay [2] is 4; in assay [10], 4; in assay [11], 8. The inhibition result in [9] is “Active”.

On to `CCC(/C=C/C(=O)NC1(CC(=O)OC)CCC(C(C)(C)C)CC1)=C\c1ccc2c(c1)OCO2` (stereo unspecified), for which the minimal inhibitory concentration (MIC) in the assay on Staphylococcus aureus [1] was above 50 µg/mL. The fold change (FC) in assay [2] was determined as 0. Also, the MEC in [3] is above 50 µg/mL.

With `CCC(/C=C/C(=O)N[C@H](C(=O)OC)C(C)C)=C\c1ccc2c(c1)OCO2`, the minimum inhibitory concentration (MIC) with Staphylococcus aureus [1] is above 50 µg/mL. Further, the fold change (FC) in assay [2] stood at 0. In addition, in assay [3], the MEC is above 50 µg/mL.

With `CCC(/C=C/C(=O)N[C@@H](CC(C)C)C(=O)OC)=C\c1ccc2c(c1)OCO2`, the MIC with Staphylococcus aureus [1] is above 50 µg/mL. The fold change (FC) in assay [2] came out at 0. The MEC in [3] was above 50 µg/mL.

As to `CCC(/C=C/C(=O)N[C@H](C(=O)OC)C(C)(C)C)=C\c1ccc2c(c1)OCO2`, the MIC against Staphylococcus aureus [4], with Staphylococcus aureus [1] and with Staphylococcus aureus [8] was above 50 µg/mL each time. Further, the results for the MEC in assay [5], in assay [7] and in [3] were above 50 µg/mL, 25 µg/mL and 12.5 µg/mL, respectively. The fold change (FC) was found to be 4 in [2], 2 in [10] and 2 in assay [11].

Turning to `O=C(/C=C/C=C/c1ccc2c(c1)OCO2)N1CCCCC1` [PIPERINE], the minimal inhibitory concentration (MIC) against Staphylococcus aureus [4], in the assay with Staphylococcus aureus [1] and against Staphylococcus aureus [8] was above 50 µg/mL throughout. The MEC in assay [5] and in assay [3] was above 50 µg/mL throughout. Besides, the fold change (FC) in assay [2] was 0; in assay [10], 0; in assay [11] it was 2.

Regarding `CCC(/C=C/C(=O)N1CCC[C@@H]1C(=O)OC)=C\c1ccc2c(c1)OCO2`, the MIC against Staphylococcus aureus [4], with Staphylococcus aureus [1] and against Staphylococcus aureus [8] was above 50 µg/mL throughout. Moreover, the Ratio in assay [12] was determined as 4. Also, the figures for the MEC in [5], in [7] and in [3] were 25 µg/mL, 3.12 µg/mL and 3.12 µg/mL, respectively. Also, the inhibition entry in assay [6] is “Dose-dependent effect”. The fold change (FC) was found to be 16 in assay [2], 2 in assay [10] and 4 in assay [11]. In addition, the inhibition result in assay [9] is “Active”.

With `CCC(/C=C/C(=O)N[C@@H](Cc1c[nH]c2ccccc12)C(=O)OC)=C\c1ccc2c(c1)OCO2`, in the assay with Staphylococcus aureus [4], the minimum inhibitory concentration (MIC) was above 50 µg/mL.

`CCC(/C=C/C(=O)N[C@@H](C)C(=O)OC)=C\c1ccc2c(c1)OCO2`: the minimum inhibitory concentration (MIC) in the assay on Staphylococcus aureus [1] is above 50 µg/mL. Further, the fold change (FC) in assay [2] was determined as 0. Moreover, in [3], the MEC was above 50 µg/mL.

In the case of `COC(=O)CC1(NC(=O)/C=C/C=C/c2ccc3c(c2)OCO3)CCCCC1`, the minimal inhibitory concentration (MIC) in the assay with Staphylococcus aureus [1] was above 50 µg/mL. Besides, the fold change (FC) in assay [2] is 0. The MEC in assay [3] was above 50 µg/mL.

As for `CCC(/C=C/C(=O)NCC1(CC(=O)OC)CCCCC1)=C\c1ccc2c(c1)OCO2`, the MIC with Staphylococcus aureus [1] was above 50 µg/mL. Besides, the fold change (FC) in [2] worked out at 2. The MEC in [3] was 25 µg/mL.

Turning to `CCC(/C=C/C(=O)N[C@@H](Cc1ccccc1)C(=O)OC)=C\c1ccc2c(c1)OCO2`, the MIC against Staphylococcus aureus [4], in the assay with Staphylococcus aureus [1] and against Staphylococcus aureus [8] was above 50 µg/mL throughout. Moreover, the MEC in assay [5] was above 50 µg/mL; in [7], 6.25 µg/mL; in [3], 25 µg/mL. The fold change (FC) in [2] came to 2; in [10] it was 2; in assay [11] it was 4.

As to `COC(=O)CC1(NC(=O)/C=C/C=C/c2ccc3c(c2)OCO3)CCC(C(C)(C)C)CC1` (stereo unspecified), the MIC with Staphylococcus aureus [1] is above 50 µg/mL. In assay [2], the fold change (FC) is 0. Also, the MEC in assay [3] was above 50 µg/mL.

As for `CCC(/C=C/C(=O)N1CCCCC1)=C\c1ccc2c(c1)OCO2`, the minimum inhibitory concentration (MIC) against Staphylococcus aureus [4], in the assay with Staphylococcus aureus [1] and with Staphylococcus aureus [8] was above 50 µg/mL throughout. Besides, the MEC is 25 µg/mL in assay [5], 12.5 µg/mL in assay [7] and 12.5 µg/mL in assay [3]. The results for the fold change (FC) in assay [2], in assay [10] and in [11] were 4, 0 and 4, respectively.

With `CCC(/C=C/C(=O)NC1(CC(=O)OC)CCC(CC)CC1)=C\c1ccc2c(c1)OCO2` (stereo unspecified), in the assay on Staphylococcus aureus [1], the MIC was above 50 µg/mL. Besides, in [2], the fold change (FC) was found to be 0. In addition, the MEC in assay [3] was above 50 µg/mL.

In the case of `COC(=O)[C@@H](NC(=O)/C=C/C=C/c1ccc2c(c1)OCO2)C(C)(C)C`, the minimum inhibitory concentration (MIC) with Staphylococcus aureus [4], in the assay with Staphylococcus aureus [1] and against Staphylococcus aureus [8] was above 50 µg/mL throughout. In addition, the values for the MEC in [5], in [7] and in assay [3] were 50 µg/mL, 50 µg/mL and 12.5 µg/mL, respectively. Further, the values for the fold change (FC) in [2], in [10] and in [11] were 4, 0 and 2, respectively.

In the case of `CCC(/C=C/C(=O)O)=C\c1ccc2c(c1)OCO2`, the minimum inhibitory concentration (MIC) with Staphylococcus aureus [1] is above 50 µg/mL. In addition, in [2], the fold change (FC) was 0. Besides, in assay [3], the MEC is above 50 µg/mL.

Regarding `COC(=O)CC1(CNC(=O)/C=C/C=C/c2ccc3c(c2)OCO3)CCCCC1`, the minimum inhibitory concentration (MIC) against Staphylococcus aureus [4], with Staphylococcus aureus [1] and against Staphylococcus aureus [8] was above 50 µg/mL throughout. Moreover, the MEC in [5] was 25 µg/mL; in assay [7] it was 50 µg/mL; in assay [3], 12.5 µg/mL. Further, the fold change (FC) was determined as 4 in assay [2], 0 in [10] and 2 in [11].

`CCC1CCC(CC(=O)OC)(NC(=O)/C=C/C=C/c2ccc3c(c2)OCO3)CC1` (stereo unspecified): the MIC with Staphylococcus aureus [1] was above 50 µg/mL. Moreover, the fold change (FC) in assay [2] is 0. Moreover, the MEC in [3] is 50 µg/mL.

On to `CCC(/C=C/C(=O)N1CCC(CC(=O)NC(C)(C)C(=O)OC)(NC(C)=O)CC1)=C\c1ccc2c(c1)OCO2`, for which the MIC in the assay with Staphylococcus aureus [1] was above 50 µg/mL. For the same molecule, the fold change (FC) in assay [2] turned out to be 2. Further, the MEC in assay [3] turned out to be 25 µg/mL.
